Here are results for 14 compounds from ChEMBL document CHEMBL1909046, “DrugMatrix in vitro pharmacology data”.

The target of data set [1] is Tyrosine-protein kinase Fyn (Homo sapiens, UniProt P06241). Nature of the data set: biochemical. In kind it is cell-based, Insect cells. To be noted: insect cells.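 Note: enzymatic inhibition of Fyn kinase activity measured with Poly(Glu:Tyr) as the phosphorylation substrate; in other assays of this panel Not Active means under 50% inhibition at 10 µM.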
A further data set has as its target T1, Cytochrome P450 1A2 (Homo sapiens, UniProt P05177). Note: in other assays of this panel Not Active means under 50% inhibition at 10 µM.
T1 sequence (P05177 whole entry): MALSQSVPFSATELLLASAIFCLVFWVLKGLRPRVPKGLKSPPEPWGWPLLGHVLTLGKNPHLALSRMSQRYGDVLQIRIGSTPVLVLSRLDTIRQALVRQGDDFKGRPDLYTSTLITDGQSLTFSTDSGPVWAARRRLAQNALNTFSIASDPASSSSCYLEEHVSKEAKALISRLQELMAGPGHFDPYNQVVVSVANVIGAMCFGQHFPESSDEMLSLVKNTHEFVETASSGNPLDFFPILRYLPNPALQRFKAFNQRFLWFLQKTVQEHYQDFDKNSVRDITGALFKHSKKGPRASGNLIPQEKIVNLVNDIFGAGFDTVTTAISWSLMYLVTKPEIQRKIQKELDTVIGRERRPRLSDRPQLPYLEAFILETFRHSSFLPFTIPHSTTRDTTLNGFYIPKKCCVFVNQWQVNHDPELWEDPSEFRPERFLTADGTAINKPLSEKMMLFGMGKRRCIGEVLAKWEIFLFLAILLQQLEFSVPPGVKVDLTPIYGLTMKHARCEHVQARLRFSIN
As to conditions: bti-tn-5b1-4.

For another data set, the target named is Insulin receptor (Rattus norvegicus, UniProt P15127). Type of data set: cell membranes, Wistar, Liver, Membrane. Note: in other assays of this panel Not Active means under 50% inhibition at 10 µM.
Data set [2] can be described thus: DRUGMATRIX: Sodium/nucleoside co-transporter radioligand binding (ligand: nitrobenzylthioinosine). Type of data set: cell membranes, Cavia porcellus, Dunkin-Hartley, Cerebral cortex, Membrane. As to conditions: Not Active = under 50% inhibition at 10 µM.
The next data set concerns the target Mu-type opioid receptor (Homo sapiens, UniProt P35372). Nature of the data set: DRUGMATRIX: Opiate mu (OP3, MOP) radioligand binding (ligand: [3H] Diprenorphine). As to conditions: Not Active = under 50% inhibition at 10 µM. In kind it is cell membranes, CHO-K1, Membrane.
A short description of data set [3]: DRUGMATRIX: Sigma2 radioligand binding (ligand: [3H] Ifenprodil). In kind it is cell membranes, Rattus norvegicus, Wistar, Brain, Membrane. To be noted: Not Active = under 50% inhibition at 10 µM.
Data set [4] has as its target T2, Angiotensin-converting enzyme (Oryctolagus cuniculus, UniProt P12822).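 Note: enzymatic inhibition of angiotensin-converting enzyme measured with FAPGG as the substrate; in other assays of this panel Not Active means under 50% inhibition at 10 µM.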
T2 sequence (P12822 whole entry): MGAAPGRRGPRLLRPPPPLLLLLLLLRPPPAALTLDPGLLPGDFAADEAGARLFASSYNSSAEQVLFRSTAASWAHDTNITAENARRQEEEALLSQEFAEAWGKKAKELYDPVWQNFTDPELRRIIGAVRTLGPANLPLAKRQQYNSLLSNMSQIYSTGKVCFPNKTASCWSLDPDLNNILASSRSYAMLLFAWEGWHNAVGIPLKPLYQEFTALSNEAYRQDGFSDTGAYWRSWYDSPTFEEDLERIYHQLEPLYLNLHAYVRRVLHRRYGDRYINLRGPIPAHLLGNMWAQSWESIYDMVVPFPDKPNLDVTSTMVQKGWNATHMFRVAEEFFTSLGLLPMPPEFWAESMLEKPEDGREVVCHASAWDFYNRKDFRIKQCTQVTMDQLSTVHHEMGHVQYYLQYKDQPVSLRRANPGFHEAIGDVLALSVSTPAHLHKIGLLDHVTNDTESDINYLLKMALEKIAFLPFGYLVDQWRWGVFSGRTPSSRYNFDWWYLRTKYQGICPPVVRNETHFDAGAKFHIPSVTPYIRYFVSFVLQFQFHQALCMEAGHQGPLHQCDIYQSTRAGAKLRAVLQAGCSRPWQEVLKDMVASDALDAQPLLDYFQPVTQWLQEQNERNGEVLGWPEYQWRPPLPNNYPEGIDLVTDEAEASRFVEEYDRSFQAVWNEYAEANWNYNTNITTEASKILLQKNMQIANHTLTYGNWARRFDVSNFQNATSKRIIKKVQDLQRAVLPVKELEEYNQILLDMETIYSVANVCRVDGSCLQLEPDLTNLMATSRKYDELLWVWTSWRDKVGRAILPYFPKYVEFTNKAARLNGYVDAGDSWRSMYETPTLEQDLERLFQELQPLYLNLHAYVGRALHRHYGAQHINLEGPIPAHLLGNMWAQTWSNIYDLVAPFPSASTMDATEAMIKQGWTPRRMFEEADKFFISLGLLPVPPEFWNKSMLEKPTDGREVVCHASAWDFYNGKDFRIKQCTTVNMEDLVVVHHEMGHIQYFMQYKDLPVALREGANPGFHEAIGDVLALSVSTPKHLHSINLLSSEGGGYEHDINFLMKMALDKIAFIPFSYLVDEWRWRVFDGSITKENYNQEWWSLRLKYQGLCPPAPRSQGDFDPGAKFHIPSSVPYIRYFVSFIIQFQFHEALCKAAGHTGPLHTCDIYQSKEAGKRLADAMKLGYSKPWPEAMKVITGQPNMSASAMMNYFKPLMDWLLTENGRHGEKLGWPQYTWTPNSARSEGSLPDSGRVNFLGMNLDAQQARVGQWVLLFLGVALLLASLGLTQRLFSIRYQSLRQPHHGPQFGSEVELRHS
In kind it is tissue-based, Lung.

Insulin receptor, sequence (P15127 27-759 limits assumed): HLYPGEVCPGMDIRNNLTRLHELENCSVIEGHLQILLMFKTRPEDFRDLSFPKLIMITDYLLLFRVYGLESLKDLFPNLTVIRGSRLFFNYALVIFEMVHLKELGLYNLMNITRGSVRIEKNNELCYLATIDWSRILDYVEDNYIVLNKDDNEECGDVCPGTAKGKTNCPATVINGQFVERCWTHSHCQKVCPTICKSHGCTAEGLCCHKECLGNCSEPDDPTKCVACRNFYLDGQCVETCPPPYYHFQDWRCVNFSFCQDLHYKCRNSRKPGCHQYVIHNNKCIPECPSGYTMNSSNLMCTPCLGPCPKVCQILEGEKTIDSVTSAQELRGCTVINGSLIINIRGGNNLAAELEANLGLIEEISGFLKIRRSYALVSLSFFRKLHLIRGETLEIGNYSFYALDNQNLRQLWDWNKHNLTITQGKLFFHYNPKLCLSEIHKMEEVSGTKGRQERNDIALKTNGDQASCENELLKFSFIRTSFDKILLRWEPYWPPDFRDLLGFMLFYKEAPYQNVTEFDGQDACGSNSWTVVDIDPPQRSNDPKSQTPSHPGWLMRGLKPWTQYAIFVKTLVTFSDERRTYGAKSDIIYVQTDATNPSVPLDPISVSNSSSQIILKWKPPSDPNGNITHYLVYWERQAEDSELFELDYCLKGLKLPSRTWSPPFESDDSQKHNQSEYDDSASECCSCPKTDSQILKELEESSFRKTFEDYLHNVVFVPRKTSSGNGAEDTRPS
Insulin receptor, sequence (P15127 764-1383 limits assumed): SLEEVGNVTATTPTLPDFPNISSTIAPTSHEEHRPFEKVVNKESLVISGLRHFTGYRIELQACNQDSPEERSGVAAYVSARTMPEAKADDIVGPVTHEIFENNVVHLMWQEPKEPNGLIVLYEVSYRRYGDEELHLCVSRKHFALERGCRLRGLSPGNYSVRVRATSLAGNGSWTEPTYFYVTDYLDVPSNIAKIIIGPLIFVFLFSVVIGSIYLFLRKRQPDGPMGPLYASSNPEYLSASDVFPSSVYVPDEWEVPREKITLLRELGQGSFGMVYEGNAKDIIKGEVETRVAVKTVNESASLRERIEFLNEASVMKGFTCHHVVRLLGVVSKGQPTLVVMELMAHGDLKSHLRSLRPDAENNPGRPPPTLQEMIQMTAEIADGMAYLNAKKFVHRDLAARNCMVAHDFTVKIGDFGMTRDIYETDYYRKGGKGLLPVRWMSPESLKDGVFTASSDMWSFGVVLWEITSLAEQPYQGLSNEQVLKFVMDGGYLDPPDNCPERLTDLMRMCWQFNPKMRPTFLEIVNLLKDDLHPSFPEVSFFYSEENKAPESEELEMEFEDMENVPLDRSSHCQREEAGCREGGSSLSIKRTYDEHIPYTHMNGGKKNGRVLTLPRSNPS
Mu-type opioid receptor, sequence (P35372 whole entry): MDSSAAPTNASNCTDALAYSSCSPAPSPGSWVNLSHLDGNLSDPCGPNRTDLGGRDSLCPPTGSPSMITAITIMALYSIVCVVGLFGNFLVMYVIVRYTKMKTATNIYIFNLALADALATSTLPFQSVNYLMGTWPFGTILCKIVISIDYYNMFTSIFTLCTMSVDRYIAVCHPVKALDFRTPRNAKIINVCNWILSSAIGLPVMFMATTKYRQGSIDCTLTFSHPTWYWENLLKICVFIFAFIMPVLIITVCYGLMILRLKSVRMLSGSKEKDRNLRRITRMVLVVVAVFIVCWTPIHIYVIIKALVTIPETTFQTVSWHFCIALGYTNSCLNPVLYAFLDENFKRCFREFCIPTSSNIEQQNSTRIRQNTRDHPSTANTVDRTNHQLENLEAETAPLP
Tyrosine-protein kinase Fyn, sequence (P06241 whole entry): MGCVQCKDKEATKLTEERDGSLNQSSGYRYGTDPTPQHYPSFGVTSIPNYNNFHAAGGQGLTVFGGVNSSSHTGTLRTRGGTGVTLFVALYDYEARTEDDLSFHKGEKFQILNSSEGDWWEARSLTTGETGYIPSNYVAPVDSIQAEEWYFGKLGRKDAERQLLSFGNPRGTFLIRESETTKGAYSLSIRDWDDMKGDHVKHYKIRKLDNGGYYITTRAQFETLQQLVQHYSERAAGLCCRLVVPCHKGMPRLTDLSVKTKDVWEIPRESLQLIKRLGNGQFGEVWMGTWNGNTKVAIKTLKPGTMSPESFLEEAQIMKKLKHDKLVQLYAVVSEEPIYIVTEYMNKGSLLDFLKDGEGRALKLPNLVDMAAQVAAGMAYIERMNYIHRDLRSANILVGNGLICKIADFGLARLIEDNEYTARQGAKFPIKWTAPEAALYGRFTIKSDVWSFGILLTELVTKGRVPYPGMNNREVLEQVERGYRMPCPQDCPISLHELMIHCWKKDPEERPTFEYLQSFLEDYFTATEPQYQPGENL

Regarding `CC(C)C[C@H]1C(=O)N2CCC[C@H]2[C@]2(O)O[C@](NC(=O)[C@@H]3C=C4c5cccc6[nH]cc(c56)C[C@H]4N(C)C3)(C(C)C)C(=O)N12` [ERGOCRYPTINE], the IC50 result in data set [1] was “Not Active”; against Cytochrome P450 1A2 it was “Not Active”; against Insulin receptor it was “Not Active”; in data set [2], “Not Active”; at Mu-type opioid receptor (read-out: IC50) it was 2430 nM; in data set [3], “Not Active”. Also, the half-inhibitory concentration (IC50) result in data set [4] is recorded as “Not Active”. For the same compound, the Ki entry at Cytochrome P450 1A2 was “Not Active”; in data set [2], “Not Active”; at Mu-type opioid receptor, 985 nM; in data set [3], “Not Active”.

In the case of `C[C@]12CC[C@@H]3c4ccc(O)cc4CC[C@H]3[C@@H]1C[C@@H](O)[C@@H]2O` [ESTRIOL], the IC50 entry (in data set [1]; against Cytochrome P450 1A2; on Insulin receptor; in data set [2]; on Mu-type opioid receptor (cho-k1); in data set [3]) was “Not Active” in each case. The half-inhibitory concentration (IC50) entry in data set [4] is reported as “Not Active”. For the same compound, the inhibition constant Ki result (on Cytochrome P450 1A2; in data set [2]; in data set [3]) was “Not Active” in each case.

For `CC(O)(P(=O)(O)O)P(=O)(O)O` [ETIDRONIC ACID], the 50% inhibitory concentration (IC50) entry (in data set [1]; against Cytochrome P450 1A2; against Insulin receptor; in data set [2]; on Mu-type opioid receptor (cho-k1); in data set [3]) was “Not Active” throughout. Also, in data set [4], the half-inhibitory concentration (IC50) entry is “Not Active”. The inhibition constant Ki entry (on Cytochrome P450 1A2; in data set [2]; in data set [3]) was “Not Active” throughout.

Regarding `CN1CCN(c2c(F)cc3c(=O)c(C(=O)O)cn(CCF)c3c2F)CC1` [FLEROXACIN], the IC50 result (in data set [1]; against Cytochrome P450 1A2; against Insulin receptor; in data set [2]; on Mu-type opioid receptor (cho-k1); in data set [3]) was “Not Active” throughout. Further, the IC50 result in data set [4] is on record as “Not Active”. In addition, the Ki result (at Cytochrome P450 1A2; in data set [2]; in data set [3]) was “Not Active” each time.

As for `O=c1[nH]c(=O)n([C@H]2C[C@H](O)[C@@H](CO)O2)cc1F` [FLOXURIDINE], the 50% inhibitory concentration (IC50) result (in data set [1]; against Cytochrome P450 1A2; against Insulin receptor; in data set [2]; at Mu-type opioid receptor (cho-k1); in data set [3]) was “Not Active” each time. The IC50 entry in data set [4] is “Not Active”. Moreover, the inhibition constant (Ki) entry (at Cytochrome P450 1A2; in data set [2]; in data set [3]) was “Not Active” each time.

`COC(=O)Nc1nc2cc(C(=O)c3ccc(F)cc3)ccc2[nH]1` [FLUBENDAZOLE]: the half-maximal inhibitory concentration (IC50) result (in data set [1]; at Cytochrome P450 1A2; against Insulin receptor; in data set [2]; on Mu-type opioid receptor (cho-k1); in data set [3]) was “Not Active” in each case. Besides, the IC50 result in data set [4] is on record as “Not Active”. Besides, the Ki entry (on Cytochrome P450 1A2; in data set [2]; in data set [3]) was “Not Active” throughout.

With `CC(=O)OCC(=O)[C@@]1(O)CC[C@H]2[C@@H]3CCC4=CC(=O)CC[C@]4(C)[C@@]3(F)[C@@H](O)C[C@@]21C` [FLUDROCORTISONE ACETATE], the IC50 result (in data set [1]; at Cytochrome P450 1A2; at Insulin receptor; in data set [2]; at Mu-type opioid receptor (cho-k1); in data set [3]) was “Not Active” throughout. Moreover, in data set [4], the IC50 result is recorded as “Not Active”. Also, the inhibition constant Ki result (on Cytochrome P450 1A2; in data set [2]; in data set [3]) was “Not Active” in each case.

Take `CCOC(=O)c1ncn2c1CN(C)C(=O)c1cc(F)ccc1-2` [FLUMAZENIL]: the half-maximal inhibitory concentration (IC50) entry (in data set [1]; against Cytochrome P450 1A2; on Insulin receptor; in data set [2]; on Mu-type opioid receptor (cho-k1); in data set [3]) was “Not Active” throughout. Also, the half-inhibitory concentration (IC50) entry in data set [4] was “Not Active”. Besides, the inhibitory constant (Ki) result (on Cytochrome P450 1A2; in data set [2]; in data set [3]) was “Not Active” each time.

Turning to `O=C(O)P(=O)(O)O` [FOSCARNET], the IC50 entry (in data set [1]; at Cytochrome P450 1A2; at Insulin receptor; in data set [2]; at Mu-type opioid receptor (cho-k1); in data set [3]) was “Not Active” each time. Besides, in data set [4], the half-maximal inhibitory concentration (IC50) result is on record as “Not Active”. The inhibition constant Ki entry (on Cytochrome P450 1A2; in data set [2]; in data set [3]) was “Not Active” each time.

Consider `Cc1ccc(C)c(OCCCC(C)(C)C(=O)O)c1` [GEMFIBROZIL], for which the IC50 result (in data set [1]; against Cytochrome P450 1A2; against Insulin receptor; in data set [2]; on Mu-type opioid receptor (cho-k1); in data set [3]) was “Not Active” each time. The half-inhibitory concentration (IC50) entry in data set [4] was “Not Active”. The Ki entry (on Cytochrome P450 1A2; in data set [2]; in data set [3]) was “Not Active” each time.

Consider `O=c1c(-c2ccc(O)cc2)coc2cc(O)cc(O)c12` [GENISTEIN], for which the half-maximal inhibitory concentration (IC50) result (in data set [1]; at Cytochrome P450 1A2; against Insulin receptor; in data set [2]; at Mu-type opioid receptor (cho-k1); in data set [3]) was “Not Active” in each case. The half-maximal inhibitory concentration (IC50) result in data set [4] was “Not Active”. Besides, the inhibitory constant (Ki) result (on Cytochrome P450 1A2; in data set [2]; in data set [3]) was “Not Active” throughout.

Take `CCC1=C(C)CN(C(=O)NCCc2ccc(S(=O)(=O)NC(=O)N[C@H]3CC[C@H](C)CC3)cc2)C1=O` [GLIMEPIRIDE]: the IC50 result (in data set [1]; against Cytochrome P450 1A2; against Insulin receptor; in data set [2]; at Mu-type opioid receptor (cho-k1); in data set [3]) was “Not Active” throughout. Besides, the half-inhibitory concentration (IC50) result in data set [4] was “Not Active”. The Ki result (on Cytochrome P450 1A2; in data set [2]; in data set [3]) was “Not Active” each time.

Regarding `Nc1cc(-c2ccncc2)c[nH]c1=O` [INAMRINONE], the IC50 result (in data set [1]; against Cytochrome P450 1A2; at Insulin receptor; in data set [2]; at Mu-type opioid receptor (cho-k1); in data set [3]) was “Not Active” in each case. For the same compound, the 50% inhibitory concentration (IC50) result in data set [4] is reported as “Not Active”. The Ki entry (on Cytochrome P450 1A2; in data set [2]; in data set [3]) was “Not Active” each time.

`CCCCC1=NC2(CCCC2)C(=O)N1Cc1ccc(-c2ccccc2-c2nnn[nH]2)cc1` [IRBESARTAN]: the half-inhibitory concentration (IC50) entry (in data set [1]; against Cytochrome P450 1A2; at Insulin receptor; in data set [2]; on Mu-type opioid receptor (cho-k1); in data set [3]) was “Not Active” in each case. Also, the 50% inhibitory concentration (IC50) result in data set [4] is listed as “Not Active”. Also, the Ki result (at Cytochrome P450 1A2; in data set [2]; in data set [3]) was “Not Active” in each case.

One may read the IC50 as the concentration at which inhibition is half-maximal. As a reminder, the Ki is a measure of affinity in units of concentration, obtained from inhibition or displacement. A higher Ki goes with lower affinity.
